In patent publication US20220347299A1, “FLUORESCENT SYSTEMS FOR BIOLOGICAL IMAGING AND USES THEREOF” (LIGHTOX LIMITED, priority 2019, published 2022):

Key:
[1] = Peak absorption and fluorescence emission wavelengths in solvents; type: physicochemical; conditions: for λem(max)/nm: 100 nM, excitation at peak of absorption; for λabs(max)/nm: 10 μM
Description: Peak absorption and fluorescence emission wavelengths of compounds 6, 7, 12, 13, 14, 15, 19, 23, 27, 30 and 34 were measured in a variety of solvents, and the results are shown in Table 1. Absorption measurements were recorded at a concentration of 10 μM, and emission measurements were recorded at a concentration of 100 nM. Emission spectra were recorded with excitation at the peak of absorption (S0→S1).

[2] = Photophysical comparison of para- and ortho-substituted compounds in chloroform; type: physicochemical; conditions: for excitation by 405 nm violet excitation laser light source (absorption at this wavelength): Chloroform
Description: To compare the photophysical behaviour of para-substituted compounds of the invention with ortho-substituted compounds, compound 73 and reference compound 77 were synthesised in accordance with Example 1:
Solutions of compounds 73 and 77 were prepared at concentrations of 10 μM and 100 nM in chloroform. The absorption spectra of each compound (10 μM) was recorded using a CARY100 UV-Visible spectrometer, from 200-800 nm, and is shown in FIG. 3a after solvent background subtraction. […] Also shown in FIG. 3a is the approximate bandwidth of a 405 nm violet excitation laser light source that is commonplace on fluorescence microscopes used for cellular imaging studies.
To assess this effect and to compare the fluorescence emission properties of 73 and 77, solutions of both compounds in chloroform (100 nM) were excited at both 360 nm and 405 nm. At 360 nm excitation, 73 and 77 were excited with high efficiency since this wavelength is close to the absorption maxima of both compounds.
Both compounds were also excited at 405 nm to compare their respective suitabilities towards imaging using a typical fluorescence microscope.

HaCaT keratinocytes = assay: Co-staining with organelle markers, co-localisation (PCC); type: cell-based; conditions: 1 μM compound, 30 minutes, BODIPY ER-Tracker Red
Description: To study the localisation of compounds in biological cells, co-staining of compounds of formula I with specific organelle markers (fluorescent dyes and antibodies) within biological cells was conducted. The following compounds were studied: compounds 6, 7, 12, 13, 14 and 15. HaCaT keratinocyte cell lines were used for the following experimental procedures. The cells were incubated in cell culture media (94% Dulbecco's Modified Eagle Medium (DMEM), 5% Foetal Bovine Serum (FBS) and 1% Penicillin Streptomycin solution (Pen-Strep). The cells were plated in 8-well plates, at a concentration of 25,000 cells per ml. 200 μl of cell suspension was added to each well, and the cells were incubated for 2 days before staining and imaging was carried out. In order to visualise the mitochondria, cells were probed with the mitochondrial dye MitoTracker® Deep Red. Cells to be stained were incubated with 200 μl MitoTracker® Deep Red solution (200 nM MitoTracker® and 1 μM Formula I compound in cell culture media) per well (N=3) for 30 minutes. Nile Red was used to identify lipids within the cells. 200 μl Nile Red Lipophilic dye (10 μg/ml Nile Red and 1 μM Formula I compound in cell culture media) was added to each well (N=3) and incubated for 30 minutes. For the detection of lysosomes within the cells, LysoTracker® Red DND-99 dye was used. 200 μl LysoTracker® Red DND-99 (50 nM LysoTracker® and 1 μM Formula I compound solution in cell culture media) was added to each well (N=3) and incubated for 30 minutes. For visualisation of the endoplasmic reticulum (ER), cells were stained with BODIPY® ER-Tracker® Red. 200 μl BODIPY ER-Tracker® Red (1 μM BODIPY® and 1 μM Formula I compound solution in cell culture media) was added to each well (N=3) and incubated for 30 minutes. Following incubation, the cell culture media containing dye was removed, and cells were washed twice with 200 μl phosphate buffered saline (PBS). After washing, 200 μl PBS was added into each well for imaging. For visualisation of the nuclear lamina, cells were probed with an anti-lamin A/C antibody. The cells were plated on 22×22 mm cover slips (10,000 cells/ml) and incubated for 2 days before staining. The cells were washed with PBS to remove excess media before staining. The cells were fixed with 4% paraformaldehyde (PFA) for 10 minutes at room temperature, before being washed twice in PBS for 5 minutes. Following washing, the cells were permeabilised in 0.4% Triton X-100 in PBS for 10 minutes. The cells were subsequently washed three times in PBS for 5 minutes, before being incubated in blocking buffer (1% BSA, 0.1% fish gelatine and 0.1% Triton X-100 in PBS) for 15 minutes at room temperature. The cells were incubated in primary antibody (mouse anti-lamin A/C IgG in blocking buffer) for 1 hour at room temperature. The cells were then washed twice in blocking buffer and incubated in secondary antibody (anti-mouse Alexa-594 IgG in blocking buffer) for 30 minutes at room temperature. Cells were washed twice in PBS for 10 minutes at room temperature. For cell staining with compounds of formula I, 5 μM of the compound of formula I in PBS was added to the cells for 30 minutes at room temperature. Cells were then washed five times for 5 minutes in PBS. Following washing, the cells were mounted onto non-charged microscopy slides using 6 μl Mowiol® per cover slip as mounting media. A Zeiss 880 confocal microscope was used for all the imaging work. [table] Image) Coloc2 software was used to calculate co-localization statistics between the compounds of formula I and the organelle marker images. The background was subtracted from each image and a region of interest (ROI) was used to target the analysis. The point spread function (PSF) of each image was calculated as 2.0 and Coastes' iterations was set to 100. The statistic quantified was the Pearson's Correlation Coefficient (PCC). PCC gives a number ranging from +1 to −1:1=perfect co-localisation; 0=no relationship; and, −1=perfect anti-co-localisation. […]

black-grass cells = assay: Cytotoxicity assay (FDA/PI) in black-grass cell suspension culture; type: cell-based
Description: 5 mL of black-grass cell suspension culture was treated with 0.1, 1, 5, and 10 μM of compound numbers 7, 14, 12 and 15 for 1 hour at room temperature. Cells treated with 0.1% DMSO were used as a control. Cells were irradiated (˜365 nm) for 5 minutes before being incubated at 25° C., 150 rpm for 24 hours. In addition, the cytotoxicity of the compounds without irradiation was also assessed. Cell viability of five biological replicates for each concentration were determined via fluorescence assay (FDA/PI) assay. Percentage of cell viability was calculated using following formulation:
% viability={live cells (FDA)/(live cells+dead cells)}×100
The statistical analysis of percentage of cell viability was performed through one-way analysis of variance (ANOVA) followed by Tukey HSD posthoc test using SPSS 23 (IBM, Chicago, Ill., USA).

[3] = 0.1, 1, 5, 10 μM, with and without ~365 nm irradiation 5 minutes, 24 hours

Compound	λem(max)/nm ([1]; Chloroform)	λabs(max)/nm ([1]; Chloroform)	λem(max)/nm ([1]; DCM)	λabs(max)/nm ([1]; DCM)	λem(max)/nm ([1]; Toluene)	λabs(max)/nm ([1]; Toluene)	average PCC Value with BODIPY ER-Tracker (HaCaT keratinocytes)	other results
O=C1/C(=C/c2ccc(C#Cc3ccc(N4CCNCC4)cc3)cc2)N=C(c2ccccc2)N1CCN1CCOCC1 [Compound 23, (4Z)-1-[2-(morpholin-4-yl)ethyl]-2-phenyl-4-[(4-{2-[4-(piperazin-1-yl)phenyl]ethynyl}phenyl)methylidene]-4,5-dihydro-1H-imidazol-5-one]	616 nm	424 nm						
COC(=O)/C=C/c1ccc(C#Cc2ccccc2N2CCN(C)CC2)cn1 [Compound 77, methyl (2E)-3-(5-{2-[2-(4-methylpiperazin-1-yl)phenyl]ethynyl}pyridin-2-yl)prop-2-enoate, reference compound]								excitation by 405 nm violet excitation laser light source (absorption at this wavelength) ([2]; 10 μM): absorbed only very weakly; fluorescence emission at 405 nm excitation ([2]; chloroform, 100 nM): only very weak fluorescence emission; absorption spectrum, ortho-position 77 relative to para-position 73 ([2]; chloroform, 10 μM, 200-800 nm): substantial hypsochromic shift and reduction in extinction coefficient
COC(=O)/C=C/c1ccc(C#Cc2ccc(N3CCNCC3)cc2)cc1 [Compound 7, methyl (2E)-3-(4-{2-[4-(piperazin-1-yl)phenyl]ethynyl}phenyl)prop-2-enoate]			563 nm	362 nm	504 nm	361 nm	0.32	black-grass cell viability (black-grass cells; [3]): did not reduce black-grass cell viability regardless of concentration or irradiation treatment
COC(=O)/C=C/c1ccc(C#Cc2ccc(N3CCN(CCC[P+](c4ccccc4)(c4ccccc4)c4ccccc4)CC3)cc2)cc1.[Br-] [Compound 14, (3-{4-[4-(2-{4-[(1E)-3-methoxy-3-oxoprop-1-en-1-yl]phenyl}ethynyl)phenyl]piperazin-1-yl}propyl)triphenylphosphonium bromide]			531 nm	361 nm	506 nm	367 nm	0.68	black-grass cell viability (black-grass cells; 1 μM, also in non-irradiation treatment): significantly reduced; dependence of cytotoxic effect on irradiation (black-grass cells; black-grass cells, ~365 nm, 5 minutes): independent of irradiation
NCCN1C(=O)/C(=C/c2ccc(C#Cc3ccc(N4CCC4)cc3)cc2)N=C1c1ccccc1 [Compound 34, (4Z)-1-(2-aminoethyl)-4-[(4-{2-[4-(azetidin-1-yl)phenyl]ethynyl}phenyl)methylidene]-2-phenyl-4,5-dihydro-1H-imidazol-5-one]	628 nm	432 nm						
CC(C)(C)OC(=O)/C=C/c1ccc(C#Cc2ccc(N3CCNCC3)cc2)s1 [Compound 27, tert-butyl (2E)-3-(5-{2-[4-(piperazin-1-yl)phenyl]ethynyl}thiophen-2-yl) prop-2-enoate]			524 nm	371 nm	493 nm	380 nm		
COC(=O)/C=C/c1ccc(C#Cc2ccc(N3CCN(C(C)=O)CC3)cc2)cc1 [Compound 13, methyl (2E)-3-(4-{2-[4-(4-acetylpiperazin-1-yl)phenyl]ethynyl}phenyl) prop-2-enoate]			547 nm	361 nm	464 nm	358 nm	−0.18	
COCCN1C(=O)/C(=C/c2ccc(C#Cc3ccc(N4CCNCC4)cc3)cc2)N=C1C [Compound 19, (4Z)-1-(2-methoxyethyl)-2-methyl-4-[(4-{2-[4-(piperazin-1-yl)phenyl]ethynyl}phenyl)methylidene]-4,5-dihydro-1H-imidazol-5-one]	584 nm	403 nm			515 nm	403 nm		λabs(max)/nm ([1]; MeOH): 395 nm
COC(=O)/C=C/c1ccc(C#Cc2ccc(N3CCC3)cc2)cc1 [Compound 30, methyl (2E)-3-(4-{2-[4-(azetidin-1-yl)phenyl]ethynyl}phenyl)prop-2-enoate]	535 nm	374 nm						
COC(=O)/C=C/c1ccc(C#Cc2ccc(N3CCN(C)CC3)cc2)cn1 [Compound 73, methyl (2E)-3-(5-{2-[4-(4-methylpiperazin-1-yl)phenyl]ethynyl}pyridin-2-yl)prop-2-enoate]								excitation by 405 nm violet excitation laser light source (absorption at this wavelength) ([2]; 10 μM): capable of efficient excitation; fluorescence emission at 360 nm excitation, compared to the other compound ([2]; chloroform, 100 nM): substantially stronger fluorescence emission; fluorescence emission at 405 nm excitation ([2]; chloroform, 100 nM): of a similar intensity to excitation at 360 nm; shift of fluorescence emission compared to compound 77 ([2]; chloroform, 100 nM, 360 nm excitation): significant bathochromic shift
COC(=O)/C=C/c1ccc(C#Cc2ccc(N(C)CCNS(=O)(=O)c3ccc(C)cc3)cc2)cc1 [Compound 15, methyl (2E)-3-{4-[2-(4-{methyl[2-(4-methylbenzenesulfonamido)ethyl]amino}phenyl)ethynyl]phenyl}prop-2-enoate]			545 nm	377 nm	473 nm	381 nm	0.30	black-grass cell viability (black-grass cells; [3]): did not reduce black-grass cell viability regardless of concentration or irradiation treatment
